This is an account of results in ChEMBL document CHEMBL1128259, “Ketomethylene and (cyanomethylene)amino pseudopeptide analogues of the C-terminal hexapeptide of neurotensin” (J Med Chem, 1995).

What is called pIC50 is the negative decadic logarithm of the IC50, by convention in mol/L. The low end stands for a large IC50, the high end for a small IC50.

pIC50: −log10 of the molar value. Peptide text beside a SMILES is read from it. * marks the point of attachment. X2 = CC[C@@H](C)[C@H](CN[C@@H](Cc1ccccc1)C(=O)O)N*

Chain of Neurotensin receptor type 1 (Rattus norvegicus) (P20789 whole entry): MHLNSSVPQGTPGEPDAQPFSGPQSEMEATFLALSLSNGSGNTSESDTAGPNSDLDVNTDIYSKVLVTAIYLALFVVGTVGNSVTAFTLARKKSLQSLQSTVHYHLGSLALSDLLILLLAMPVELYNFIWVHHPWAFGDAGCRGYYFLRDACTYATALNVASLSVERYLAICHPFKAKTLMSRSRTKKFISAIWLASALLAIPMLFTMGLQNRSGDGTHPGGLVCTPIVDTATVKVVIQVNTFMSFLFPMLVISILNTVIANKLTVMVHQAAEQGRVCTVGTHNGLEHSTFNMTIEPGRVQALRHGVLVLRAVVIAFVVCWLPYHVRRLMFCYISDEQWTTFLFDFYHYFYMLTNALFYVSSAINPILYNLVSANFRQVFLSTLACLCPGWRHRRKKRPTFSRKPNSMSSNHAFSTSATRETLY

In one test the target is T1, Neurotensin receptor type 1 (Rattus norvegicus, UniProt P20789). In words: IC50 was measured as binding to rat cortex membranes using [3H]- NT(neurotensin) as tracer.
T1 sequence (P20789 whole entry): as above
`CC(C)C[C@H](NC(=O)[C@H](CC(=O)[C@H](Cc1ccc(O)cc1)NC(=O)[C@@H]1CCCN1C(=O)[C@H](CCCNC(=N)N)NC(=O)[C@@H](N)CCCNC(=N)N)Cc1ccccc1)C(=O)O`: the pIC50 is 5.92.
On the same count and under the same terms, as for `CC(C)C[C@H](NC(=O)[C@H](Cc1ccccc1)NC(=O)[C@H](Cc1ccc(O)cc1)NC(=O)[C@@H]1CCCN1C(=O)[C@H](CCCN=C(N)N)NC(=O)[C@@H](N)CCCN=C(N)N)C(=O)O`, the figure is 8.10; as for `CC(C)C[C@H](NC(=O)C(CC(=O)[C@H](Cc1ccc(O)cc1)NC(=O)[C@@H]1CCCN1C(=O)[C@H](CCCNC(=N)N)NC(=O)[C@@H](N)CCCNC(=N)N)Cc1ccccc1)C(=O)O` (single isomer, unassigned), 7.82; as for `CC[C@H](C)[C@H](NC(=O)[C@H](Cc1ccc(O)cc1)NC(=O)[C@@H]1CCCN1C(=O)[C@H](CCCN=C(N)N)NC(=O)[C@@H](N)CCCN=C(N)N)C(=O)C[C@H](Cc1ccccc1)C(=O)O` (stereo in doubt; 13c) [listing 1 of 2 here], 5.82.
`CC[C@H](C)[C@H](NC(=O)[C@H](Cc1ccc(O)cc1)NC(=O)[C@@H]1CCCN1C(=O)[C@H](CCCN=C(N)N)NC(=O)[C@@H](N)CCCN=C(N)N)C(=O)C[C@H](Cc1ccccc1)C(=O)O` (stereo in doubt; 13a) [listing 1 of 2 here] showed a pIC50 of 6.92.
The same measure, in the same setting: under `CC[C@H](C)[C@H](NC(=O)[C@H](Cc1ccc(O)cc1)NC(=O)[C@@H]1CCCN1C(=O)[C@H](CCCNC(=N)N)NC(=O)[C@@H](N)CCCNC(=N)N)C(=O)N[C@@H](Cc1ccccc1)C(=O)O` stands 8.30; under `CC[C@H](C)[C@H](NC(=O)[C@H](Cc1ccc(O)cc1)NC(=O)[C@@H]1CCCN1C(=O)[C@H](CCCN=C(N)N)NC(=O)[C@@H](N)CCCN=C(N)N)C(=O)C[C@H](Cc1ccccc1)C(=O)O` (stereo in doubt; 13b) [listing 1 of 2 here], 5.92; under `CC[C@H](C)[C@H](NC[C@H](Cc1ccc(O)cc1)NC(=O)[C@@H]1CCCN1C(=O)[C@H](CCCN=C(N)N)NC(=O)[C@@H](N)CCCN=C(N)N)C(=O)N[C@@H](CC(C)C)C(=O)O`, 5.20.
On the same count and under the same terms, as for `CC[C@H](C)[C@H](NC(=O)[C@H](Cc1ccc(O)cc1)NC(=O)[C@@H]1CCCN1C(=O)[C@H](CCCN=C(N)N)NC(=O)[C@@H](N)CCCN=C(N)N)C(=O)C[C@H](Cc1ccccc1)C(=O)O` (mixture of isomers) [listing 1 of 2 here], the figure is 6.05; as for `CC[C@@H](C)[C@H](CN[C@@H](Cc1ccccc1)C(=O)O)NC(=O)[C@H](Cc1ccc(O)cc1)NC(=O)[C@@H]1CCCN1C(=O)[C@H](CCCNC(=N)N)NC(=O)[C@@H](N)CCCNC(=N)N` (H-RRPY-X2), 5.10.

The target of a further test is T1, Neurotensin receptor type 1. In words: IC50 was measured as binding to rat cortex membranes using [3H]- NT (neurotensin) as tracer.
In the case of `CC[C@H](C)[C@H](NC(C#N)[C@H](Cc1ccc(O)cc1)NC(=O)C1CCCN1C(=O)[C@H](CCCN=C(N)N)NC(=O)[C@@H](N)CCCN=C(N)N)C(=O)N[C@@H](CC(C)C)C(=O)O` (some centres undefined), the negative-log IC50 (pIC50) is 5.00.
In turn, `CC[C@H](C)[C@H](NC(C#N)[C@@H](Cc1ccc(O)cc1)NC(=O)[C@@H]1CCCN1C(=O)[C@H](CCCN=C(N)N)NC(=O)[C@@H](N)CCCN=C(N)N)C(=O)N[C@@H](CC(C)C)C(=O)O` (some centres undefined) showed a negative logarithm of the IC50 (pIC50) of 6.74.

Another test concerns the target Neurotensin receptor type 1 (Rattus norvegicus) (UniProt P20789). In words: Relative potency at neurotensin receptor compared to neurotensin (NT8-13).
`CC[C@H](C)[C@H](NC(C#N)[C@H](Cc1ccc(O)cc1)NC(=O)C1CCCN1C(=O)[C@H](CCCN=C(N)N)NC(=O)[C@@H](N)CCCN=C(N)N)C(=O)N[C@@H](CC(C)C)C(=O)O` (some centres undefined) came in with a Relative potency of 0.1.
Same read-out and setting: as for `CC(C)C[C@H](NC(=O)[C@H](CC(=O)[C@H](Cc1ccc(O)cc1)NC(=O)[C@@H]1CCCN1C(=O)[C@H](CCCNC(=N)N)NC(=O)[C@@H](N)CCCNC(=N)N)Cc1ccccc1)C(=O)O`, the figure is 0.8; as for `CC[C@@H](C)[C@@H](NC[C@H](Cc1ccc(O)cc1)NC(=O)[C@@H]1CCCN1C(=O)[C@H](CCCN=C(N)N)NC(=O)[C@@H](N)CCCN=C(N)N)C(=O)N[C@@H](CC(C)C)C(=O)O`, 0.1.
The same measure, in the same setting: as for `CC[C@H](C)[C@H](NC(=O)[C@H](Cc1ccc(O)cc1)NC(=O)[C@@H]1CCCN1C(=O)[C@H](CCCN=C(N)N)NC(=O)[C@@H](N)CCCN=C(N)N)C(=O)C[C@H](Cc1ccccc1)C(=O)O` (mixture of isomers) [listing 2 of 2 here], the figure is 1.1; as for `CC(C)C[C@H](NC(=O)[C@@H](Cc1ccccc1)NC(=O)[C@H](Cc1ccc(O)cc1)NC(=O)[C@@H]1CCCN1C(=O)[C@H](CCCN=C(N)N)NC(=O)[C@@H](N)CCCN=C(N)N)C(=O)O`, 105; as for `CC[C@H](C)[C@H](NC(=O)[C@H](Cc1ccc(O)cc1)NC(=O)[C@@H]1CCCN1C(=O)[C@H](CCCN=C(N)N)NC(=O)[C@@H](N)CCCN=C(N)N)C(=O)C[C@H](Cc1ccccc1)C(=O)O` (stereo in doubt; 13c) [listing 2 of 2 here], 0.6.
Still for that read-out and setting: under `CC(C)C[C@H](NC(=O)C(CC(=O)[C@H](Cc1ccc(O)cc1)NC(=O)[C@@H]1CCCN1C(=O)[C@H](CCCNC(=N)N)NC(=O)[C@@H](N)CCCNC(=N)N)Cc1ccccc1)C(=O)O` (single isomer, unassigned) stands 66.6; under `CC[C@H](C)[C@H](NC(=O)[C@H](Cc1ccc(O)cc1)NC(=O)[C@@H]1CCCN1C(=O)[C@H](CCCN=C(N)N)NC(=O)[C@@H](N)CCCN=C(N)N)C(=O)C[C@H](Cc1ccccc1)C(=O)O` (stereo in doubt; 13a) [listing 2 of 2 here], 8.3.
`CC[C@@H](C)[C@@H](NC(=O)[C@H](Cc1ccc(O)cc1)NC(=O)[C@@H]1CCCN1C(=O)[C@H](CCCN=C(N)N)NC(=O)[C@@H](N)CCCN=C(N)N)C(=O)N[C@@H](Cc1ccccc1)C(=O)O` gave a Relative potency of 200.
Consider `CC[C@@H](C)[C@H](CN[C@@H](Cc1ccccc1)C(=O)O)NC(=O)[C@H](Cc1ccc(O)cc1)NC(=O)[C@@H]1CCCN1C(=O)[C@H](CCCN=C(N)N)NC(=O)[C@@H](N)CCCN=C(N)N` (H-RRPY-X2), for which the Relative potency is 0.1.
Same read-out and setting: under `CC[C@H](C)[C@H](NC(C#N)[C@@H](Cc1ccc(O)cc1)NC(=O)[C@@H]1CCCN1C(=O)[C@H](CCCN=C(N)N)NC(=O)[C@@H](N)CCCN=C(N)N)C(=O)N[C@@H](CC(C)C)C(=O)O` (some centres undefined) stands 5.5; under `CC[C@H](C)[C@H](NC(=O)[C@H](Cc1ccc(O)cc1)NC(=O)[C@@H]1CCCN1C(=O)[C@H](CCCN=C(N)N)NC(=O)[C@@H](N)CCCN=C(N)N)C(=O)C[C@H](Cc1ccccc1)C(=O)O` (stereo in doubt; 13b) [listing 2 of 2 here], 0.8.
